US5886190A, “Rapid synthesis and use of 18F-fluoromisonidazole and analogs” (priority 1997, dated 1999)

Legend:
[1] = test system: hypoxic elements within a tumor volume; conditions: 2 or more hours after injection; cited from earlier work
[2] = test system: hypoxic elements within a tumor volume; assay: Patient studies of ^18 F-FMISO uptake in tumors; conditions: in vivo
Description: In patient studies, the hypoxic elements within a tumor volume was defined as regions with a threshold regional tumor to plasma (^18 F-FMISO) ratio of ≥1.4 by 2 or more hours after injection.

[3] = test system: intracellular nitroreductases; conditions: cited from earlier work
[4] = test system: mammary tumor; assay: Autoradiographic studies in tumor-bearing rats; conditions: 1 hour postinjection
Method: (§1) The synthesis scheme for [^18 F]FETNIM is depicted in FIG. 6. Biodistribution studies of [^18 F]FETNIM were performed at 1, 2 and 4 hours in mammary tumor-bearing rats (10 μCi, iv, N=3/time interval). Autoradiograms were performed at 1 hour postinjection of [^18 F]FETNIM, and a comparison has been made with [^18 F]fluoromisonidazole (FMISO). Intratumoral oxygen tension measurements were performed using the Eppendorf computerized histographic system. Twenty to twenty-five pO2 measurements along each of 2 to 3 linear tracks were performed at 0.4 mm intervals on each tumor. PET imaging studies of [^18 F]FETNIM were performed in rabbits bearing V2 tumors (N=3, 4 mCI, iv) which were located on the right leg.
Female Fischer 344 mammary tumor-bearing rats (n=3) after receiving [^18 F]FETNIM (2 mCi, iv) were sacrificed at 1 h. […] The rats were sacrificed at 1 hour postinjection. The rat body was fixed in a carboxymethyl cellulose (4%) block. The frozen body in a block was mounted to a cryostat (LKB 2250 cryo-microtome, Ijamsville, Md.) and 40 μm coronal sections were made. The section was freeze dried, then mounted on a x-ray film (X-Omat AR, Kodak, Rochester, N.Y.) for 24 hours.

[5] = test system: hypoxic cells; conditions: radiobiologically significant oxygen levels; cited from earlier work
[6] = type: in vivo, 70 Kg male (human)
Description: The following Table summarizes the results of dosimetry calculation for radiation exposure to several […] tissues.
Dosimetry: Normal Tissue Dosimetry for ^18 F-FMISO

[7] = test system: rats; conditions: 2 mCi/Kg single dose; n=3; follow-up 5 days
Method: In addition, animal acute toxicity studies have been performed, rats (n=3) were administered 2 mCi/Kg as a single dose.

[8] = test system: nasalpharyngeal cancer (NPC); assay: PET imaging of patients with nasalpharyngeal cancer; type: in vivo, human (patients); conditions: 10 mCi
Method: PET imaging studies were performed on two patients with nasalpharyngeal cancer (NPC). […] After each patient had received 10 mCi of [^18 F]FMISO, eight consecutive 15-min scans were taken. […] Each patient was also administered [^18 F]FDG to ascertain the tumor region.

[9] = test system: hypoxic cells; assay: Selectivity to hypoxic cells (PET imaging, autoradiograms, biodistribution); conditions: in vivo
Method: as §1
PET imaging was performed with a positron camera (Positron Corporation, Houston, Tex.). The tomograph has a field-of-view of 42 cm on transverse and 12 cm on coronal planes. The axial resolution on the reconstructed plane is 1.2 cm. […]
Female Fischer 344 rats (250-275 g) (Harlan, Inc., Indianapolis, Ind.) were inoculated with mammary tumor cells in the lumbar area using a 13762 tumor cell line (s.c. 10^5 cells/rat). […] The tissues were excised, weighed and counted for radioactivity. The percent of injected dose per gram of tissue weight was determined.

O=[N+]([O-])c1nccn1CC(O)C[18F] (stereo not shown) [[^18 F]FMISO, 3-[^18 F]Fluoro-1-(2'-nitro-1'-imidazoyl)-2-propanol]
Threshold regional tumor to plasma ratio defining hypoxic elements [1]: ≥ 1.4 | Feasibility of detecting hypoxia in human head and neck tumors [2]: feasibility of using ^18 F-FMISO to detect hypoxia in human head and neck tumors | Metabolism [3]: metabolized by intracellular nitroreductases | Uptake in intestines and colon [4]: high uptake | Differentiation of hypoxic versus necrotic regions in the tumor ([4]; autoradiogram): could differentiate hypoxic versus necrotic regions in the tumor | Selective binding to hypoxic cells [5]: bind selectively to hypoxic cells in vitro and in vivo | Bladder wall dose relative to muscle dose ([6]; 70 Kg male, 0.1 mCi/Kg): about five times as much | Liver and kidney dose relative to muscle dose ([6]; 70 Kg male, 0.1 mCi/Kg): nearly twice the muscle dose | Total body musculature dose in a routine study ([6]; 70 Kg male, 0.1 mCi/Kg): 120 mrem | Normal tissue dose, bladder ([6]; bladder, 7 mCi/70 Kg, n = 2): 570 mrad | Normal tissue dosimetry, bladder ([6]; bladder, ± SD): 81.5 ± 47 mrad/mCi | Normal tissue dose, kidney ([6]; kidney, 7 mCi/70 Kg, n = 3): 180 mrad | Normal tissue dosimetry, kidney ([6]; kidney, ± SD): 25.8 ± 5.5 mrad/mCi | Normal tissue dose, liver ([6]; liver, 7 mCi/70 Kg, n = 3): 190 mrad | Normal tissue dosimetry, liver ([6]; liver, ± SD): 26.8 ± 9.7 mrad/mCi | Normal tissue dose, muscle ([6]; muscle, 7 mCi/70 Kg, n = 6): 120 mrad | Normal tissue dosimetry, muscle ([6]; muscle, ± SD): 16.8 ± 7.9 mrad/mCi | Acute toxicity [7]: All rats tolerated this dose without toxicity | Detection of hypoxic tumors by PET [8]: able to detect primary or metastatic hypoxic tumors | PET tumor uptake, first patient ([8]; first patient): showed tumor uptake in the lymph node region | PET finding, second patient ([8]; second patient): the recurrent primary tumor is hypoxic | Selectivity to hypoxic cells [9]: selective to hypoxic cells
